The supplement of paper PMC10307832

Legend:
Test in all cases: relative viability (nuclei count vs DMSO), 5 days (fraction); higher = more cells survive
[1] = compound: C[C@]1(c2nc3c(C(N)=O)cccc3[nH]2)CCCN1 [Veliparib] + CC(=O)c1c(C)c2cnc(Nc3ccc(N4CCNCC4)cn3)nc2n(C2CCCC2)c1=O [Palbociclib] (partner 0.5 µM)
Summary of the method: (§1)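 Relative viability divides the nuclei count in treated wells by that in vehicle wells. Lung cancer cell lines were seeded in 1536-well plates, dosed by pin tool the next day, and fixed and stained after 5 days in one step with final 0.05% Triton X-100, 1% formaldehyde and 1 ug/ml Hoechst. Dosing was a single drug or a fixed anchor-drug dose plus five library-drug doses (not always all listed) in √10 steps, and values are medians of duplicate plates imaged at 4×.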

[2] = compound: C[C@]1(c2nc3c(C(N)=O)cccc3[nH]2)CCCN1 [Veliparib] + NC(=O)Nc1cc(-c2cccc(F)c2)sc1C(=O)N[C@H]1CCCNC1 [AZD7762] (partner 0.2 µM)
Summary of the method: as §1

[3] = compound: COC1=CC=C(C=C1)CN2C=CC3=C2C=C(C=C3)C(=O)NO + Cc1nc(NC(=O)N2CCC[C@H]2C(N)=O)sc1-c1ccnc(C(C)(C)C(F)(F)F)c1 [Alpelisib] (partner 2 µM)
Summary of the method: as §1

[4] = compound: C[C@]1(c2nc3c(C(N)=O)cccc3[nH]2)CCCN1 [Veliparib] + CC(C)C[C@H](NC(=O)[C@H](Cc1ccccc1)NC(=O)c1cnccn1)B(O)O [Bortezomib] (partner 0.002 µM)
Summary of the method: as §1

Cell Line	relative viability ([1]; first compound 0.02 µM)	relative viability ([1]; first compound 0.06325 µM)	relative viability ([1]; first compound 0.2 µM)	relative viability ([1]; first compound 0.6325 µM)	relative viability ([1]; first compound 2 µM)	relative viability ([2]; first compound 0.02 µM)	relative viability ([2]; first compound 0.06325 µM)	relative viability ([2]; first compound 0.2 µM)	relative viability ([2]; first compound 0.6325 µM)	relative viability ([2]; first compound 2 µM)	relative viability ([3]; first compound 0.08 µM)	relative viability ([3]; first compound 0.253 µM)	relative viability ([3]; first compound 0.8 µM)	relative viability ([3]; first compound 2.53 µM)	relative viability ([3]; first compound 8 µM)	relative viability ([4]; first compound 0.02 µM)	relative viability ([4]; first compound 0.06325 µM)	relative viability ([4]; first compound 0.2 µM)	relative viability ([4]; first compound 0.6325 µM)	relative viability ([4]; first compound 2 µM)
H3255	0.344	0.309	0.298	0.304	0.358	1	0.893	0.816	0.756	0.857	0.629	0.722	0.679	0.717	0.621	0.729	0.835	0.737	0.827	1.02
NCI-H727	0.7	0.689	0.624	0.661	0.605	0.627	0.495	0.784	0.681	0.603	0.525	0.515	0.626	0.654	0.562	0.381	0.754	0.755	0.82	0.815
NCI-H2405	0.529	–	0.569	0.504	0.503	0.772	–	0.81	0.734	0.738	0.474	0.784	0.804	0.797	0.675	0.96	0.858	0.978	0.988	0.93
RERF-LC-KJ	1.07	1.03	1.06	1.09	1.13	1.07	0.896	0.999	0.933	1.03	0.765	0.796	0.83	0.95	0.83	1.07	0.928	1.15	1.02	1.05
NCI-H1734	–	0.32	0.351	0.323	0.349	–	0.529	0.529	0.536	0.642	–	0.676	0.717	0.622	0.689	0.911	0.779	0.904	0.827	1.01
HCC-827	0.458	0.459	0.51	0.176	0.454	0.26	0.335	0.2	0.236	0.222	0.975	0.947	1.01	0.995	0.969	1.02	0.914	1.01	1.13	1.13
NCI-H1792	0.635	0.603	0.704	0.692	0.659	0.479	0.485	0.548	0.569	0.533	0.663	0.765	0.744	0.741	0.617	0.924	0.858	0.981	0.916	0.897
NCI-H2126	0.357	0.357	0.373	0.33	0.313	0.957	0.975	1.03	1.07	0.834	0.738	0.798	0.744	0.804	0.836	1.03	1.07	1.18	1.14	1.06
EPLC-272H	–	0.355	0.35	0.317	0.302	–	0.122	0.21	0.174	0.166	0.875	0.976	0.985	0.864	0.875	–	0.84	0.964	0.85	0.878
HCC-366	0.352	0.371	0.369	0.371	0.341	0.233	0.253	0.174	0.164	0.231	–	0.435	0.384	0.587	0.406	1.06	1.05	1.01	1.07	1.07
EKVX	–	0.42	0.403	0.373	0.383	–	0.731	0.833	0.728	0.806	0.749	0.856	0.878	0.91	0.897	0.806	0.893	0.888	0.978	1.16
201T	0.352	0.353	0.364	0.356	0.373	0.656	0.778	0.645	0.639	0.689	0.948	1.08	1.07	1.03	1	1.09	1.07	1.06	1.18	1.08
LC-2-ad	0.485	0.496	0.508	0.477	0.505	0.606	0.822	0.865	0.876	0.801	0.857	0.861	0.833	0.973	0.877	–	0.987	0.985	0.944	1.05
HCC-78	0.459	0.458	0.454	0.456	0.442	0.599	0.434	0.664	0.643	0.591	–	0.359	0.395	0.35	0.305	0.537	0.482	0.639	0.428	0.474
NCI-H441	0.203	0.222	0.266	0.213	0.218	1.12	1.09	1.14	1.01	1.04	0.711	0.8	0.644	0.917	0.554	0.472	0.293	0.533	0.365	0.401
NCI-H650	0.309	0.278	0.344	0.33	0.331	1.07	0.798	1.14	0.96	0.944	1.01	1.16	1.05	1.03	0.892	0.635	0.675	0.64	0.744	0.565
ABC-1	–	–	0.863	0.694	0.405	–	0.778	0.771	0.752	0.716	–	1.37	0.928	1	1.17	–	0.266	0.257	0.259	0.304

Cell Line	relative viability ([1]; first compound 0.02 µM)	relative viability ([1]; first compound 0.06325 µM)	relative viability ([1]; first compound 0.2 µM)	relative viability ([1]; first compound 0.6325 µM)	relative viability ([1]; first compound 2 µM)	relative viability ([2]; first compound 0.02 µM)	relative viability ([2]; first compound 0.06325 µM)	relative viability ([2]; first compound 0.2 µM)	relative viability ([2]; first compound 0.6325 µM)	relative viability ([2]; first compound 2 µM)	relative viability ([3]; first compound 0.08 µM)	relative viability ([3]; first compound 0.253 µM)	relative viability ([3]; first compound 0.8 µM)	relative viability ([3]; first compound 2.53 µM)	relative viability ([3]; first compound 8 µM)	relative viability ([4]; first compound 0.02 µM)	relative viability ([4]; first compound 0.06325 µM)	relative viability ([4]; first compound 0.2 µM)	relative viability ([4]; first compound 0.6325 µM)	relative viability ([4]; first compound 2 µM)
A-427	0.507	0.51	0.529	0.5	0.593	0.768	0.719	0.755	0.724	0.782	–	1.15	1.13	1.15	1.06	0.969	0.936	0.929	0.99	0.959
HARA	0.352	0.174	0.308	0.327	0.265	0.346	–	0.302	0.308	0.573	0.149	0.851	0.765	0.917	0.693	1.13	1.1	0.995	1.11	1.16
HCC-44	1	0.834	0.996	0.964	1.01	1.04	0.913	0.936	0.934	1.07	0.732	0.901	0.786	0.823	0.778	0.885	0.759	0.879	0.829	0.846
NCI-H1915	0.541	0.461	0.519	0.512	0.504	0.661	0.643	0.517	0.556	0.519	1.02	1.07	1.06	1.08	1.02	0.939	1.02	0.842	0.915	0.755
NCI-H1666	0.574	0.606	0.644	0.655	0.654	0.872	0.823	0.799	0.918	0.881	1.07	1.04	1.01	1.04	1.36	0.879	0.599	0.81	0.666	0.875
NCI-H3122	0.166	0.147	0.207	0.179	0.192	0.937	1.01	0.986	0.971	1.01	0.613	0.88	0.828	0.87	0.701	1.01	0.99	0.968	0.998	0.938
PC-14	–	0.514	0.51	0.465	0.523	0.357	0.313	0.335	0.385	0.327	0.883	0.856	0.96	1.02	0.985	0.865	0.807	0.795	0.714	0.757
NCI-H2087	0.183	0.222	0.249	0.264	0.216	1.29	1.23	1.5	1.3	1.19	1.08	1.08	1.21	1.13	0.864	0.563	0.819	0.81	0.709	0.838
LCLC-103H	0.44	0.417	0.48	0.44	0.456	0.794	0.73	0.702	0.75	0.687	0.998	0.992	0.954	1.03	0.855	0.822	0.963	1.01	1.05	0.933
PC-3 [JPC-3]	0.54	–	0.493	0.566	0.543	0.82	–	0.875	0.898	0.773	1.02	1.02	1.01	1.13	1.02	0.821	0.789	0.85	0.815	0.785
LOU-NH91	0.538	0.546	0.552	0.574	0.538	0.768	0.705	0.75	0.723	0.821	0.635	0.71	0.769	0.731	0.69	0.486	0.387	0.511	0.464	0.476
NCI-H838	0.22	0.191	0.235	0.225	0.224	0.998	0.914	0.963	0.94	0.937	–	0.981	0.91	1.03	0.874	0.905	0.79	0.926	0.686	0.848
NCI-H23	0.546	0.428	0.445	0.486	0.516	0.35	0.216	0.201	0.277	0.28	0.535	0.834	0.643	0.737	0.756	0.887	1.04	1.02	0.883	1.08
NCI-H1993	–	0.569	0.59	0.614	0.636	–	0.875	0.934	0.664	0.607	0.613	0.671	0.669	0.745	0.795	0.994	1.31	1.13	1.03	1.06
NCI-H1437	0.304	0.323	0.281	0.362	0.335	0.996	1.07	1.17	1.13	1.09	0.827	1.04	0.958	0.953	1.01	0.424	0.496	0.472	0.47	0.474
LU99A	0.495	0.399	0.418	0.381	0.451	0.403	0.385	0.322	0.283	0.317	–	0.552	0.624	0.605	0.479	1.16	1.1	0.833	1.06	1.29
